Experimental data taken from patent US4029807A (priority 1975, dated 1977).

Key:
[1] = Clinical tolerability / adverse effects; settings: view of the Applicant
depressed patients = settings: 10-50 mg intravenously, with a monoamino-oxydase inhibitor; cited from earlier work
MAO = settings: non-hydrazinic MAO inhibitor; cited from earlier work
cerebral serotonin [2] = settings: statement without data; cited from earlier work
[3] = clinical use, as described; cited from earlier work
[4] = Acute toxicity, intraperitoneal; assay type: in vivo, I.C.R. Swiss albino mice; settings: mouse, in vivo, ip; mice of both sexes, intraperitoneal
Protocol: (§1) The studies of acute toxicity have been made with I.C.R. Swiss albino mice of both sexes. We express the toxicity date with the parameters of lethal dose 16 (LD16), lethal dose 50 (LD50) and lethal dose 84 (LD84), in mg/kg. of weight. The substance was administered intraperitoneally.

I.C.R. Swiss albino mice = assay: Acute toxicity, intraperitoneal; assay type: in vivo
Protocol: as §1

female mice = assay: Irwin's schema (behavioural symptomatology); assay type: in vivo; settings: for symptomatology of our product observed with comparator: L-glutamic acid and L-5 hydroxytryptophan: separate administration at equimolecular doses
serotonin in the brain = settings: dogs; cited from earlier work
[5] = cited from earlier work
[6] = system: antidepressive effects of the MAO inhibitors; settings: in vivo; cited from earlier work
depressive patient = settings: total dose 150 mg, cited from earlier work; for response of depressive symptoms: amitryptiline with anticonvulsivant therapy for two months, 5-hydroxytryptophan 5 days, L-DOPA previously
[7] = system: uptake I (presynaptic membrane); settings: presynaptic membrane level; cited from earlier work
[8] = system: patients affected by Parkinson's disease; settings: human, in vivo; cited from earlier work
[9] = system: patients in depressive phase; settings: 5 weeks, tablets 20, 50 and 100 mg three times a day; cited from earlier work
[10] = system: serotonin in the brains of rats; settings: administered at the same time as monoamino-oxydase inhibitors; cited from earlier work
cerebral serotonin [11] = assay: Cerebral serotonin level (inferred from symptomatology of the animals injected); assay type: in vivo; settings: compared with sole administration of L-5-hydroxytryptophan
[12] = system: responses to serotonin (rat's isolated uterus); assay: Antiserotoninic activity, rat's isolated uterus; settings: 40 mcg/ml
[13] = Analgesic activity, chemical analgesia; assay type: in vivo
[14] = Analgesic activity, thermal analgesia (hot plate at 55° C.); assay type: in vivo
[15] = mice of both sexes, intraperitoneal

With “5-hydroxytryptophan glutamate [the product obtained by this method]” the tolerability [1] was “great tolerability”.
For `NC(Cc1c[nH]c2ccc(O)cc12)C(=O)O` (racemic) [DL-5-OH-tryptophan], the improvement of depression (depressed patients) is listed as “improvement of depression in one day”.
For `N[C@@H]1C[C@H]1c1ccccc1` (relative stereo) [Tranilcypromine], the “inhibition of MAO” value (MAO) is given as “powerful inhibitor of non-hydrazinic MAO”, the “cerebral serotonin raising action compared with our product” value (cerebral serotonin [2]) is given as “very inferior to our product” and the “adverse effects and secondary reactions” value [3] is given as “great amount of adverse effects and secondary reactions”. The LD50 [4] was 11.3 mg/kg, the LD16 (I.C.R. Swiss albino mice; [15]) was 7.3 mg/kg and the LD84 (I.C.R. Swiss albino mice; [15]) was 18 mg/kg. The “symptomatology of our product observed with comparator” value (“symptomatology” below) (female mice) was “Neither is this symptomatology observed”.
In the case of `N[C@@H](Cc1c[nH]c2ccc(O)cc12)C(=O)O` [5-hydroxytryptophan], the “raising of the level of serotonin in the brain” value (serotonin in the brain) is given as 10 times, the tissue penetration ([5]; animals) is given as “rapidly penetrates most tissues” and the conversion into serotonin ([5]; if there is decarboxylase) is given as “converted into serotonin”. The “potentiation of the antidepressive effects of the MAO inhibitors” value [6] was “potentiation of the antidepressive effects of the MAO inhibitors has been observed”, the “time to disappearance of the depressive symptoms after treatment” value (depressive patient; 5 days) was “two” and the “response of depressive symptoms” value (depressive patient) was “rapid improvement in the state of mind”.
In the case of `CN(C)CCCN1c2ccccc2CCc2ccccc21` [Imipramine], the LD16 (I.C.R. Swiss albino mice; [15]) is given as 33.3 mg/kg, the LD84 (I.C.R. Swiss albino mice; [15]) is given as 80 mg/kg and the “incorporation blockage (uptake I)” value [7] is given as “produces an incorporation blockage (uptake I) on the presynaptic membrane level”.
In the case of `N[C@@H](Cc1c[nH]c2ccc(O)cc12)C(=O)O` [L-5-hydroxytryptophan], the anti-tremor effect [8] is listed as “visible anti-tremor effect”, the “antidepressive action in Parkinson's disease patients” value [8] is listed as “intense antidepressive action with improvement of the affective field, of the psychomotor impulse and activation of personal initiative” and the “symptomatology” value (female mice) is listed as “not observed”. The “remission of depressive symptoms” value [9] was “symptoms remitting so rapidly that even the patients themselves were impressed”.
In the case of `N[C@@H](Cc1ccc(O)c(O)c1)C(=O)O` [L-DOPA], the “response of depressive symptoms” value (depressive patient) is given as “without obtaining any result”.
For `N[C@@H](CCC(=O)O)C(=O)O` [L-glutamic acid], the “symptomatology” value (female mice) was “not observed”.
In the case of `CN(C)CCC=C1c2ccccc2CCc2ccccc21` [amitryptiline], the “response of depressive symptoms” value (depressive patient) is listed as “did not produce any positive response”.
For `N[C@@H](Cc1c[nH]c2ccccc12)C(=O)O` [tryptophan], the “increase in brain serotonin with monoamino-oxydase inhibitors” value [10] is given as “the increase becomes higher” and the “potentiation of the antidepressive effects of the MAO inhibitors” value [6] is given as “potentiation of the antidepressive effects of the MAO inhibitors has been observed”.
In the case of “L-5 hydroxytryptophan monohydrate L-glutamate [Our product]”, the “raising of cerebral serotonin levels” value (cerebral serotonin [11]) is listed as “raises the levels of cerebral serotonin, in a greater way than the sole administration of L-5-hydroxytryptophan”, the “adverse effects and secondary reactions” value [3] is listed as “No interesting secondary reactions have yet been described” and the “inhibition of the responses to serotonin” value [12] is listed as 36%. For the same compound, the “times less toxic than imipramine” value (I.C.R. Swiss albino mice; from the foregoing table) was 6 times, the “times less toxic than tranilcypromine” value (I.C.R. Swiss albino mice; from the foregoing table) was 300 times and the LD16 (I.C.R. Swiss albino mice; [15]) was 260.5 mg/kg. The LD50 (I.C.R. Swiss albino mice; [15]) was 323 mg/kg, the LD84 (I.C.R. Swiss albino mice; [15]) was 401.4 mg/kg and the “analgesic effect compared with dextropropoxyphene” value ([13]; 10 mg/kg oral vs dextropropoxyphene 50 mg/kg intraperitoneal, technique (chemical or thermal) not specified) was “same analgesic effect as dextropropoxyphene”. For the same compound, the “analgesic action, chemical analgesia” value ([13]; in vivo) was “significant analgesic action”, the “analgesic action, hot plate” value [14] was “significant analgesic action” and the duration of symptoms (female mice; 10 mg/kg orally) was at least 120 min. For the same compound, the “onset of symptoms after administration” value (female mice; 10 mg/kg orally) was 15 min, the “pharmacological activity compared with each ingredient separately” value (female mice; equimolecular doses) was “superior to that of each ingredient separately” and the “symptoms (Irwin's schema)” value (female mice; our product 10 mg/kg orally, female mice 28±2 g) was “increase in the state of alertness, a reaction to cleanliness and an increase in spontaneous activity, in addition to restlessness and irritability”.
